Test results as given in publication PMC6358021 (European journal of medicinal chemistry, 2018).
Values belong to the compound of their own block, whether it stands above or below them.

Columns and labels:
[1] = system: human Smo; details: HEK293 cells that stably express human Smo; cited from earlier work
[2] = target: P-glycoprotein (Pgp) (Homo sapiens, UniProt P08183); assay: P-glycoprotein substrate assessment; assay type: in vitro ADME; details: CRO service (Pharmaron or Cyprotex)
[3] = system: Gli1 mRNA expression in ASZ cells; assay: Hh inhibition: down-regulation of endogenous Gli1 mRNA expression in ASZ cells; assay type: cell-based, murine
[4] = target: CYP3A4 (Homo sapiens, UniProt P08684); assay: CYP3A4 inhibition; assay type: in vitro ADME; details: removal of the triazole moiety
Chain of CYP3A4 (P08684 whole entry): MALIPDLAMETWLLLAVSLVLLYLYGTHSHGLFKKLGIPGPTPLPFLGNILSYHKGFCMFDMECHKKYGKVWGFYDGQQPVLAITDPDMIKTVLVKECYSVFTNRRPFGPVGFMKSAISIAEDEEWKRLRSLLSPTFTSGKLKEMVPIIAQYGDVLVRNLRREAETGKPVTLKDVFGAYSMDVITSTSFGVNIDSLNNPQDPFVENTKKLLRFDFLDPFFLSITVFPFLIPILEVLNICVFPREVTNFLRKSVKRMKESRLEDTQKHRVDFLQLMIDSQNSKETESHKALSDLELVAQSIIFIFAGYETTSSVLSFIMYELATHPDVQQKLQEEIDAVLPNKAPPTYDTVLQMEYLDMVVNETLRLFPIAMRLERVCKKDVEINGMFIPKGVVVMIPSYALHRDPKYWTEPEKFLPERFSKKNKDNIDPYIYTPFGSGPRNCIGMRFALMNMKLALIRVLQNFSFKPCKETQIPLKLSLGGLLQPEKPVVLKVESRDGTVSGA

Chain of P-glycoprotein (Pgp) (P08183 whole entry): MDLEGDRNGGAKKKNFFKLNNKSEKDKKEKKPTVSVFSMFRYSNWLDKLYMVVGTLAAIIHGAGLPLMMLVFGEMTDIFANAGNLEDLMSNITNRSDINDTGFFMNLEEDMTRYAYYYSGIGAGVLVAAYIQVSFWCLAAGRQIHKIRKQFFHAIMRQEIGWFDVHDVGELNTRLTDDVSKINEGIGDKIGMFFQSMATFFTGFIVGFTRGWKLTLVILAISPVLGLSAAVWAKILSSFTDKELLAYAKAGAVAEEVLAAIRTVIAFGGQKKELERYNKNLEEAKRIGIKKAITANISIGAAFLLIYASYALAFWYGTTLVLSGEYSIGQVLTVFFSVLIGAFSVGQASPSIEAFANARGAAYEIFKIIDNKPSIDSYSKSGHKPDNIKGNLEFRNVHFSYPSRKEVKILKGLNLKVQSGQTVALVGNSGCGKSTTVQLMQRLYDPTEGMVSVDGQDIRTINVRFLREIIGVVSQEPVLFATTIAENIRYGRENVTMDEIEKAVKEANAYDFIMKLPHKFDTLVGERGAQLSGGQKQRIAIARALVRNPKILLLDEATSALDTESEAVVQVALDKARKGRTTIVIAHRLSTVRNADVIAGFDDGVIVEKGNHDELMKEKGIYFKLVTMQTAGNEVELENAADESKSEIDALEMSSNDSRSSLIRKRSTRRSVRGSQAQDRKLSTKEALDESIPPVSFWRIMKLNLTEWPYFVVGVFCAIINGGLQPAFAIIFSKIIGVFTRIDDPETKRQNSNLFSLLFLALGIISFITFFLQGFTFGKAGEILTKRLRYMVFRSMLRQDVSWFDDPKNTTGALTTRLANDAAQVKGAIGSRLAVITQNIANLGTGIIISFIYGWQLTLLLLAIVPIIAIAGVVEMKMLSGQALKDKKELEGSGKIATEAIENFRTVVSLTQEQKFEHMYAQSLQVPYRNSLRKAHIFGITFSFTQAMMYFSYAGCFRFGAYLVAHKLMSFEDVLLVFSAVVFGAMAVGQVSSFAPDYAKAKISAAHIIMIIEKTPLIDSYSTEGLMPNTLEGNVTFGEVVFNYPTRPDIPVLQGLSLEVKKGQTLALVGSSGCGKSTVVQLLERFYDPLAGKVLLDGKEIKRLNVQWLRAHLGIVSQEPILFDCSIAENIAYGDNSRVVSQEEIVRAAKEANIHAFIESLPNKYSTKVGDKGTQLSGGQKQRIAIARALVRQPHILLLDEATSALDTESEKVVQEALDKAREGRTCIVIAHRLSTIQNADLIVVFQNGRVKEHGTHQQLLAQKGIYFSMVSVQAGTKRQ

Structure (SMILES): CCC(C)n1ncn(-c2ccc(N3CCN(c4ccc(OCC5COC(Cn6cncn6)(c6ccc(Cl)cc6Cl)O5)cc4)CC3)cc2)c1=O (stereo not drawn) [ITZ, itraconazole]
- displacement of a tritiated Smo antagonist [1]: significantly displaced

- P-gp Substrate [2]: identified as a substrate
Structure (SMILES): CC[C@@H]([C@H](C)O)n1ncn(-c2ccc(N3CCN(c4ccc(OC[C@@H]5CO[C@@](Cn6cncn6)(c6ccc(F)cc6F)C5)cc4)CC3)cc2)c1=O [PSZ, Posaconazole, reference compound]

Structure (SMILES): CC1(c2ccc(Cl)cc2Cl)OCC(COc2ccc(N3CCN(c4ccc(-n5cnn(CCC(=O)O)c5=O)cc4)CC3)cc2)O1 (stereo not drawn) [analogue 21, 3-(4-(4-(4-(4-((2-(2,4-dichlorophenyl)-2-methyl-1,3-dioxolan-4-yl)methoxy)phenyl)piperazin-1-yl)phenyl)-5-oxo-4,5-dihydro-1H-1,2,4-triazol-1-yl)propanoic acid]
- fold more active than 19 [3]: approximately 2 fold

- ability to inhibit Cyp3A4, in words [4]: completely abolished
- P-gp Substrate [2]: not a substrate
Structure (SMILES): CC[C@@H](C)n1ncn(-c2ccc(N3CCN(c4ccc(OC[C@@H]5CO[C@@](C)(c6ccc(F)cc6F)C5)cc4)CC3)cc2)c1=O [analogue 1, 2-((R)-sec-butyl)-4-(4-(4-(4-(((3R,5R)-5-(2,4-difluorophenyl)-5-methyltetrahydrofuran-3-yl)methoxy)phenyl)-piperazin-1-yl)phenyl)-2,4-dihydro-3H-1,2,4-triazol-3-one]
- fold more potent than PSZ ([3]; ratio of IC50 values): approximately 2.5 fold
